In the supplement of paper PMC10307832:

Assays:
Experiment in all cases: relative viability (nuclei count vs DMSO), 5 days (fraction); higher = more cells survive
[1] = compound: CN[C@@H]1C[C@H]2O[C@@](C)([C@@H]1OC)n1c3ccccc3c3c4c(c5c6ccccc6n2c5c31)C(=O)NC4 [Staurosporine] + CS(=O)(=O)N1CCN(Cc2cc3nc(-c4cccc5[nH]ncc45)nc(N4CCOCC4)c3s2)CC1 [Pictilisib] (partner 1 µM)
How it was run: (§1)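 Five library-drug doses in √10 steps were combined with a fixed anchor-drug dose, or a single drug was given alone, by pin tool to lung cancer cell lines in 1536-well plates the day after seeding. Nuclei were stained and counted after 5 days. Relative viability is the nuclei count in treated wells over that in vehicle wells, taken as the median of duplicate plates.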

Sulindac + Pictilisib = compound: CC1=C(CC(=O)O)c2cc(F)ccc2/C1=C\c1ccc([S+](C)[O-])cc1 [Sulindac] + CS(=O)(=O)N1CCN(Cc2cc3nc(-c4cccc5[nH]ncc45)nc(N4CCOCC4)c3s2)CC1 [Pictilisib] (partner 1 µM)
How it was run: as §1

[2] = compound: O=c1[nH]cc(F)c(=O)[nH]1 [5-Fluorouracil] + CS(=O)(=O)N1CCN(Cc2cc3nc(-c4cccc5[nH]ncc45)nc(N4CCOCC4)c3s2)CC1 [Pictilisib] (partner 1 µM)
How it was run: as §1

Sulindac + Decitabine = compound: CC1=C(CC(=O)O)c2cc(F)ccc2/C1=C\c1ccc([S+](C)[O-])cc1 [Sulindac] + Nc1ncn([C@H]2C[C@H](O)[C@@H](CO)O2)c(=O)n1 [Decitabine] (partner 2 µM)
How it was run: as §1

Cell Line | relative viability ([1]; first compound 0.005 µM) | relative viability ([1]; first compound 0.01581 µM) | relative viability ([1]; first compound 0.05 µM) | relative viability ([1]; first compound 0.1581 µM) | relative viability ([1]; first compound 0.5 µM) | relative viability (Sulindac + Pictilisib; first compound 0.08 µM) | relative viability (Sulindac + Pictilisib; first compound 0.253 µM) | relative viability (Sulindac + Pictilisib; first compound 0.8 µM) | relative viability (Sulindac + Pictilisib; first compound 2.53 µM) | relative viability (Sulindac + Pictilisib; first compound 8 µM) | relative viability ([2]; first compound 0.02 µM) | relative viability ([2]; first compound 0.2 µM) | relative viability ([2]; first compound 0.6325 µM) | relative viability ([2]; first compound 2 µM) | relative viability (Sulindac + Decitabine; first compound 0.08 µM) | relative viability (Sulindac + Decitabine; first compound 0.253 µM) | relative viability (Sulindac + Decitabine; first compound 0.8 µM) | relative viability (Sulindac + Decitabine; first compound 2.53 µM) | relative viability (Sulindac + Decitabine; first compound 8 µM)
NCI-H441 | 0.426 | 0.152 | 0.178 | 0.155 | 0.12 | 0.627 | 0.452 | 0.373 | 0.469 | 0.603 | 0.453 | 0.442 | 0.35 | 0.243 | 0.255 | 0.232 | 0.252 | 0.245 | 0.264
NCI-H1915 | 0.719 | – | 0.35 | – | 0.0773 | 0.975 | 0.927 | 0.761 | 0.887 | 1.05 | 0.958 | 0.908 | 1.01 | 0.773 | 0.229 | 0.268 | 0.266 | 0.261 | 0.27
LXF-289 | 0.48 | – | 0.111 | 0.0648 | 0.0482 | 0.955 | 0.796 | 0.769 | 0.823 | 0.848 | 0.787 | 0.689 | 0.421 | 0.295 | 0.404 | 0.416 | 0.372 | 0.381 | 0.452
HCC-827 | 1.24 | 0.812 | 0.559 | 0.552 | 0.43 | 0.922 | 1.17 | 0.823 | 0.88 | 1.06 | 0.749 | 1.03 | 0.656 | 0.478 | 0.342 | 0.31 | 0.328 | 0.332 | 0.291
EMC-BAC-2 | 0.29 | 0.129 | 0.141 | 0.195 | 0.176 | 0.524 | 0.58 | 0.485 | 0.542 | 0.596 | 0.616 | 0.56 | 0.506 | 0.536 | 0.994 | 1 | 0.888 | 0.934 | 1.08
NCI-H647 | 0.292 | 0.125 | 0.148 | 0.118 | 0.0831 | 0.49 | 0.422 | 0.435 | 0.419 | 0.735 | 0.473 | 0.483 | 0.429 | 0.401 | 0.392 | 0.51 | 0.361 | 0.442 | 0.426
NCI-H1792 | 0.25 | 0.0859 | 0.0905 | 0.106 | – | 0.286 | 0.294 | – | 0.231 | 0.313 | 0.337 | 0.243 | 0.113 | 0.0763 | 0.476 | 0.632 | – | 0.581 | 0.417
NCI-H2009 | 0.195 | 0.146 | 0.182 | 0.115 | 0.0836 | 1.04 | 0.8 | 0.788 | 0.71 | 0.932 | 0.798 | 0.679 | 0.533 | 0.446 | 0.455 | 0.397 | 0.371 | 0.362 | 0.359
